# Key:
# PANC-1 = assay: CCK-8 cytotoxicity assay, PANC-1; format: cell-based
# Method: (§1) Cell viability was evaluated using the Cell Counting Kit‐8 (Beyotime, Shanghai, China) assay. Cells were seeded in 96‐well plates at a density of 2×10^3 cells to allow for attachment. After treatment with ZQJ29 (0.001, 0.01, 0.1, 10, and 25 µM) for 24, 48, and 72 h, 10 µL of CCK‐8 solution was added to each well and incubated for 1 h. The optical density values were then measured at 450 nm using a multifunctional enzyme‐linked immunosorbent assay reader (Tecan, Spark, Switzerland).
# A549 = assay: CCK-8 cytotoxicity assay, A549; format: cell-based; conditions: Homo sapiens, A549, 72 h
# Method: as §1
# HEK-293T = assay: CCK-8 cytotoxicity assay, HEK-293T (normal cell line); format: cell-based; conditions: Homo sapiens, 72 h
# Method: as §1
# LX2 = assay: CCK-8 cytotoxicity assay, LX2 (normal cell line); format: cell-based; conditions: Homo sapiens, LX-2, 72 h
# Method: as §1
# [1] = Pharmacokinetic study after intragastric administration; format: in vivo, Sprague-Dawley (SD) rats; conditions: rat, 50 mg/kg i.g.
# Method: Male Sprague‐Dawley (SD) rats (200 ± 20 g) were purchased from Beijing Vital River Laboratory Animal Technology Co., Ltd. (Beijing, China). After a one‐week acclimatization period, the rats were injected intragastrically with ZQJ29 (50 mg kg^−1). Blood samples were collected from the jugular veins after the injection of ZQJ29 (at 5, 10, 20, 40, 60, 120, 240, 360, 720, and 1440 min). The whole blood was centrifuged at 4000 × g for 10 min at 4 °C. Plasma was extracted with MeOH by vortexing for 10 min. After centrifugation for 12 min at 12 000 × g at 4 °C, the supernatant was analyzed using an HPLC‐MS/MS system. The concentration of ZQJ29 was quantitatively measured by the external standard method. Pharmacokinetic parameters were calculated using Drug and Statistic (DAS, version 2.0) software based on the compartmental method.
# PANC-1 tumors = assay: PANC-1 subcutaneous xenograft antitumor activity; format: in vivo, BALB/c nude mice
# Method: Five‐week‐old male BALB/c nude mice were purchased from Shanghai Jihui Laboratory Animal Breeding Co., Ltd. (Shanghai, China). After a one‐week acclimatization period, PANC‐1 cells were subcutaneously injected at a dose of 5 × 10^6 cells per mouse. Four weeks post‐injection, once tumor volumes reached 50–100 mm^3, the tumor‐bearing animals were randomly divided into four groups, each consisting of six animals. ZQJ29 was prepared in a 0.5% CMC‐Na solution, while OXA was dissolved in saline. The control group was treated with oral gavage of 0.5% CMC‐Na, while the positive control group was administered intraperitoneal injections of OXA at a dosage of 3 mg kg^−1 every three days. The test groups were treated with oral gavage of ZQJ29 at dosages of 25 and 50 mg kg day^−1. Mouse weights were monitored every other day. Tumor measurements were taken every other day using calipers, and the tumor volume was calculated using the following formula: ½ × length × width^2. Drug administered continued for three weeks. After blood collection at the end of the administration, the mice were humanely euthanized, and their vital organs were promptly harvested, preserved, and embedded in paraffin for H&E staining.
# PANC-1 and KP4 cells [2] = assay: Colony formation assay; format: cell-based; conditions: 0, 1, 2.5, 5 µM, concentration-dependent
# Method: The clonogenicity of pancreatic cancer cells was evaluated using a colony formation assay. PANC‐1 and KP4 cells were seeded into 6‐well plates at ≈200 cells per well in the conditional medium. The cells were treated with different concentrations of ZQJ29 (0, 1, 2.5, and 5 µM) for 24 h. After treatment, the drug‐containing medium was removed, and complete medium was added for an additional […] in a 37 °C incubator with 5% CO2. The plates were then washed with PBS and fixed with 4% paraformaldehyde. After staining with 0.5% crystal violet (Yeasen, Shanghai, China), the colonies were counted manually.
# PANC-1 and KP4 cells [3] = assay: Ferroptosis markers (lipid ROS, iron, MDA, GSH); format: cell-based; conditions: 0, 1, 2.5, 5 µM, 24 h of ZQJ29 treatment
# PANC-1 and KP4 cells [4] = assay: CCK-8 viability after PARP1 siRNA knockdown; format: cell-based; conditions: PARP1-siRNA transfection, ZQJ29 1 µM, 24 h
# Method: as §1
# A short interfering RNA (siRNA) targeting human PARP1 was designed and synthesized by GenePharma (Shanghai, China). The sequences of the siRNAs are detailed in Table S5 (Supporting Information). PANC‐1 and KP4 Cells were cultured in six‐well plates until they reached 70% confluence. The cells were then transfected with 50 nM siRNA‐PARP1 or a negative control with Lipofectamine 2000 (Thermo Fisher, USA) for 24 h, according to the manufacturer's instructions.
# PARP1 = PARP1 (Homo sapiens, UniProt P09874); assay: SPR analysis (Biacore S200); format: binding; design: purchased Sino Biological 11040‐H08B; conditions: 25 °C, Steady State Affinity model
# Sequence of PARP1 (P09874 whole entry): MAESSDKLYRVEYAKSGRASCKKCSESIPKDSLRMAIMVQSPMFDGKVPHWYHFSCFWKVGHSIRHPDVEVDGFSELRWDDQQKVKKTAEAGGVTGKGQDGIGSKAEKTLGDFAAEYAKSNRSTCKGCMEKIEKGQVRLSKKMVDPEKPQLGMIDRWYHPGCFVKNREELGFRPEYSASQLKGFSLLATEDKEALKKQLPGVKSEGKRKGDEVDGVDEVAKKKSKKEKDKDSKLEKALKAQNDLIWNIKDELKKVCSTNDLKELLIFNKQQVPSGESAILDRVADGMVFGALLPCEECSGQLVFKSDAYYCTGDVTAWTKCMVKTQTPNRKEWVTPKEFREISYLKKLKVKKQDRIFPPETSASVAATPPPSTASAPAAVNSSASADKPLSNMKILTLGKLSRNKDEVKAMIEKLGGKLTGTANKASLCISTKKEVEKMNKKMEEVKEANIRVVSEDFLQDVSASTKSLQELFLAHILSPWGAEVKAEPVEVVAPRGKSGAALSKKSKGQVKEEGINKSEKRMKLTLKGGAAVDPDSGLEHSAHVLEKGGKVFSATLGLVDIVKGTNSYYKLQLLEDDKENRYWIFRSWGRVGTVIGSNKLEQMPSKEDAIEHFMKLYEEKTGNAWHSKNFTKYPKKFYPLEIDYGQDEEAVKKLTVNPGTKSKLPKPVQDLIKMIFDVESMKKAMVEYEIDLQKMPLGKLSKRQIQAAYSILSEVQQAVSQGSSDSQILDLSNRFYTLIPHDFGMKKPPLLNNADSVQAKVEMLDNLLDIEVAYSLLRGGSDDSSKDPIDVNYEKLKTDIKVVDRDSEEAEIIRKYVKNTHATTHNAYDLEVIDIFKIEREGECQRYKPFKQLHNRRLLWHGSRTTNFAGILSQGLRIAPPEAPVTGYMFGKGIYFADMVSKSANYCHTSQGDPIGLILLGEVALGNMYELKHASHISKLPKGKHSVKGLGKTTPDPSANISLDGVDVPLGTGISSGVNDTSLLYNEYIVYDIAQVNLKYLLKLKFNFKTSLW
# Method: The interaction between ZQJ29 and PARP1 was assessed by SPR with the Biacore S200 system at 25 °C (Cytiva). Recombinant human PARP1 protein (Sino Biological, 11040‐H08B) was immobilized on an activated carboxymethylated 5 (CM5) sensor chip using the amine coupling method. Gradient concentrations of 3 were injected at a flow rate of 40 µL min^−1 in a running buffer [5% (v/v) DMSO in PBS·P]. The results were analyzed with the Biacore evaluation software (S200 version). Data were fitted to the Steady State Affinity model, and kinetic parameters were derived.
# [5] = male, Sprague-Dawley, plasma, po, n = 6
# [6] = tumor tissue and proteomic analyses
smiles,measurement,setting,value
CC1CCC2C(C)C(OCCN(C#N)CCOC3OC4OC5(C)CCC6C(C)CCC(C3C)C46OO5)OC3OC4(C)CCC1C32OO4 (centres unmarked) [ZQJ29],IC50,"PANC-1; Homo sapiens, PANC-1, 72 h, average of 3 parallel tests",120 ± 30 nM
same,increased cytotoxicity compared to OXA and DHA,PANC-1; PANC-1 cells,≈ 100 fold
same,IC50,A549,> 10000 nM
same,IC50,HEK-293T,> 10000 nM
same,IC50,LX2,> 10000 nM
same,AUC(0-t),[1]; [5],40 ± 16.3 ng·h/mL
same,Cmax,[1]; [5],11.8 ± 6.05 ng/mL
same,MRT last,"[1]; male, Sprague-Dawley, plasma, po, n = 6, read-out: MRT0-t",2.74 ± 0.46 h
same,MRT inf,"[1]; male, Sprague-Dawley, plasma, po, read-out: average residence time (MRT0-inf)",2.74 h
same,half-life,"[1]; male, Sprague-Dawley, plasma, po, 50 mg/kg, n = 6",1.58 ± 0.26 h
same,t1/2,"[1]; n = 6, 50 mg/kg",1.6 h
same,tumor size and weight,"PANC-1 tumors; 25 or 50 mg/kg oral, vs control group",significantly reduced
same,tumor growth,"PANC-1 tumors; ZQJ29 25 and 50 mg/kg/day oral gavage, OXA 3 mg/kg i.p. every three days, three weeks, vs control",effectively inhibited
same,expression of Ki67 and PCNA in tumor tissue (IHC),"PANC-1 tumors; after treatment, vs control",significantly reduced
same,"expression of PARP1, SLC7A11 and GPX4",PANC-1 tumors; [6],downregulated
same,expression of TP53,PANC-1 tumors; [6],upregulated
same,colony formation,PANC-1 and KP4 cells [2],significantly inhibited
same,"intracellular ROS, iron, MDA and GSH levels",PANC-1 and KP4 cells [3],"increased ROS release, iron accumulation, MDA production, and GSH depletion"
same,proliferation inhibition by ZQJ29 upon PARP1 knockdown,PANC-1 and KP4 cells [4],markedly reversed
same,Kd,PARP1,2860 nM

# Source: article PMC12362764, “Novel Cyano‐Artemisinin Dimer ZQJ29 Targets PARP1 to Induce Ferroptosis in Pancreatic Cancer Treatment” (Advanced Science, 2025)
